Experimental data published in patent publication US20260063641A1, “COMPOSITIONS AND METHODS FOR LABELING AND DETECTING BINDING PARTNERS” (UNIVERSITY OF UTAH RESEARCH FOUNDATION, priority 2022, published 2026).

Key:
[1] = target: BRD2, BRD3 and BRD4 (BET proteins) and interactors (Homo sapiens, UniProt P25440); experiment: BioTAC proximity labeling with label-free mass spectrometry-based proteomics of streptavidin-enriched biotinylated proteins; type: cell-based; details: 1 μM, 4 hr timepoint
Description: Having determined that the BioTAC system could identify BRD4 as a (+)-JQ1 target in focused screens, it was evaluated as an unbiased target-ID method. To identify direct binders of (+)-JQ1 proteome-wide, BioTAC proximity labelling experiments were performed as described above, followed by label-free mass spectrometry-based proteomic analysis of biotinylated proteins enriched following a 30 minute treatment with 100 μM biotin plus DMSO or 1 μM Cpd1, and then 1 μM Cpd1 off-competed by pre-treatment with 10 μM free (+)-JQ1.
Having established conditions for determining the primary targets of small molecules using the BioTAC system, its utility in reading out the interactome sphere of (+)-JQ1 bound BET-proteins was next investigated. An advantage of the BioTAC system is the relatively long half-life of the activated biotin-AMP intermediate generated by TurboID, allowing the labelling radius to be increased up to 35 nm by extending the labelling time. To quantitively evaluate the ability of the BioTAC system to successfully enrich the known interactome of (+)-JQ1 bound BET proteins, time course BioTAC proximity labelling experiments were performed at the 1 h and 4 h time points, and evaluated streptavidin-enriched biotinylated proteins using mass spectrometry-based proteomic analysis (FIG. 2A-C, FIG. 6). Longer time points correlated with a greater number of proteins meeting the significance cut-offs (defined as FC>2, P<0.05) for both enrichment in Cpd1 vs. DMSO, and competition with free (+)-JQ1 in Cpd1 vs. Cpd1+10 μM (+)-JQ1, (FIG. 2A, FIG. 6). […] Additionally, identified hit proteins at 1-4 hrs also included many known BET interactors, such as proteins found in components of the Pol II productive elongation complex subunit P-TEFb, the TFILD complex, and the Nucleosome Remodeling Deacetylase (NuRD) complex, as well as known BRD4 direct-binder Histone H4. […] To test this hypothesis the hits were compared to an extensive BET protein interactome reference dataset identified using AP/MS and proximity labelling coupled to mass spectrometry with and without (+)-JQ1. The BioTAC system afforded significant enrichment and off-competition (P<0.0001, one-way ANOVA) of identified reference interactors at the 4 h time point (FIG. 2B). Next it was asked whether the inverse could be performed, enriching complex members identified by Lambert et al. Mol Cell 73, 621-638 e617 (2019) directly from the data without any a priori knowledge of known interactors. It was discovered that 60% of the statistically significant enriched and (+)-JQ1 rescued hits were also present in the Lambert dataset. This observation falls greater than 7 standard deviations above a random bootstrap analysis of the data without filtering for significant enrichment and (+)-JQ1 rescue (FIG. 2C).
9 million HEK293 cells were plated into 15 cm dishes containing 12 mL of complete media (DMEM, 10% FBS, 1% pen/strep) and incubated overnight. Cells were transiently transfected with 1 mL of OptiMEM media containing 10 μg of BioTAC plasmid and 30 μL of TransIT-2020 transfection reagent for 24 hr. Following a media change, cells were optionally pre-treated with parental molecules for 10 min, then treated with bifunctional compound for 10 min, and finally labeled in 100 μM biotin for 30 min, 1 hr, or 4 hrs. Cells were washed 5 times with DPBS then harvested by scraping on ice into 1.5 mL tubes. […] Lysates were clarified by centrifuging at 16,000×g for 10 min and protein concentration determined by BCA assay. […]

BRD4 = target: T1, BRD4 (Homo sapiens, UniProt O60885); experiment: BioTAC proximity labeling, streptavidin pulldown and western blot for BRD4; type: cell-based; details: HEK293 transiently transfected with miniTurbo-FKBP12F36V, 100 μM biotin, 30 min time point
T1 construct: host or cells: HEK293 transiently transfected with the BioTAC plasmid
Description: Next bifunctional molecule guided-proximity labeling experiments were performed using validated reagents. HEK293 cells transiently transfected with mTurbo-FKBP12F36V were treated with 100 μM biotin, 1 μM bifunctional (+)-JQ1 recruiters, and variable concentrations of free (+)-JQ1 to off-compete the bifunctional molecule and rescue biotinylation. Biotinylated proteins were isolated from cell lysates via streptavidin bead pulldown and analyzed by western blot for BRD4, a primary target of (+)-JQ1.
0.6 million HEK293 cells were plated into wells containing 1 mL of complete media (DMEM, 10% FBS, 1% pen/strep) and incubated overnight. Cells were transiently transfected with 100 μL of OptiMEM media containing 1 μg of BioTAC plasmid and 3 μL of TransIT-2020 transfection reagent (Mirus, MIR5400) for 24 hr. Following a media change, cells were pre-treated with parental molecules or DMSO for 10 min, then treated with bifunctional compound for 10 min, and finally labeled in 100 μM biotin for the indicated time. Cells were washed twice with DPBS then harvested into 1.5 mL tubes. […] Protein concentration was determined by BCA assay (Thermo, 23225), then 100 ug protein was rotated overnight at 4° C. with 8 μL of streptavidin magnetic beads (Thermo, 88817) that had been prewashed twice in RIPA lysis buffer. […]

BRD2, BRD3 and BRD4 (BET proteins) and interactors, sequence (P25440 whole entry): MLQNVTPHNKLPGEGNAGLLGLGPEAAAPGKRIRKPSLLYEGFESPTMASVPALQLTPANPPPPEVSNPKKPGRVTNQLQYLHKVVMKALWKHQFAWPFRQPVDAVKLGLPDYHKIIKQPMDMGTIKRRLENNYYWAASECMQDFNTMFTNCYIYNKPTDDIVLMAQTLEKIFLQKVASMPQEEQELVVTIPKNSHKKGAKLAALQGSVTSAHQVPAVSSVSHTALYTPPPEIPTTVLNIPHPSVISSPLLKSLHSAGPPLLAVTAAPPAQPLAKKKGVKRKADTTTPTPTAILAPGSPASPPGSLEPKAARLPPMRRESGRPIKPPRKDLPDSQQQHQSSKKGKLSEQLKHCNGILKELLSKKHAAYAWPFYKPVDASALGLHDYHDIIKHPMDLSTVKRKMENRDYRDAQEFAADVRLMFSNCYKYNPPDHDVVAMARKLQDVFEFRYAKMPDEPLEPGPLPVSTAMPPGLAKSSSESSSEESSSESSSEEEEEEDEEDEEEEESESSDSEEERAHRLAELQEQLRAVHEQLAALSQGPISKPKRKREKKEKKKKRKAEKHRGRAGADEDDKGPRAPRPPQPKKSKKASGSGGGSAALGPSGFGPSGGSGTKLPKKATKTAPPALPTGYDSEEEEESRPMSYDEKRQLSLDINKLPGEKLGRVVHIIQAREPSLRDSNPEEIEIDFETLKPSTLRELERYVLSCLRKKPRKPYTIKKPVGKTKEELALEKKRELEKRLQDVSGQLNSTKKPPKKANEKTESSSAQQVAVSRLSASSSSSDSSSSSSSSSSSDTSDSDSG
BRD2, BRD3 and BRD4 (BET proteins) and interactors, sequence (as listed by the source partner): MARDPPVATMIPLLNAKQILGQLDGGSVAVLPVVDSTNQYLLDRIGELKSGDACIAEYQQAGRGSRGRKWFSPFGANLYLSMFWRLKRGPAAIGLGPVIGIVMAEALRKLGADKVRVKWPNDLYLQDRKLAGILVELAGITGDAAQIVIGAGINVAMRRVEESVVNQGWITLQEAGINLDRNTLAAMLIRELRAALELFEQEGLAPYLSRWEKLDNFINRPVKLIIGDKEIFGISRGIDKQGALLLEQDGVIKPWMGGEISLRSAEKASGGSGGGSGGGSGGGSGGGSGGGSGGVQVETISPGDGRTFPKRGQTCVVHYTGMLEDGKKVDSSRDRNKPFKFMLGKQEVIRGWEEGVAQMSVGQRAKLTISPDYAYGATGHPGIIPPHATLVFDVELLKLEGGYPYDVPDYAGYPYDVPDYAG

detection of BRD2 (proteomics) [1]: detected
BRD4 labeling and rescue (immunoblot of streptavidin pulldown) (BRD4): high BRD4-labeling and rescue
SMILES: CC[C@H](C(=O)N1CCCC[C@H]1C(=O)O[C@H](CCc1ccc(OC)c(OC)c1)c1ccccc1OCC(=O)NCCOCCOCCOCCNC(=O)C[C@@H]1N=C(c2ccc(Cl)cc2)c2c(sc(C)c2C)-n2c(C)nnc21)c1cc(OC)c(OC)c(OC)c1 [Cpd1, (R)-1-(2-((17-((S)-4-(4-Chlorophenyl)-2,3,9-trimethyl-6H-thieno[3,2-f][1,2,4]triazolo[4,3-a][1,4]diazepin-6-yl)-2,16-dioxo-6,9,12-trioxa-3,15-diazaheptadecyl)oxy)phenyl)-3-(3,4-dimethoxyphenyl)propyl (S)-1-((S)-2-(3,4,5-trimethoxyphenyl)butanoyl)piperidine-2-carboxylate]
